From paper PMC11233931, “Remodeling tumor‐associated macrophage for anti‐cancer effects by rational design of irreversible inhibition of mitogen‐activated protein kinase‐activated protein kinase 2” (MedComm, 2024) come the findings set out here.

The inhibition is the drop in the measured response relative to a control, in per cent.

Structures are written as SMILES.

Assay [1] concerns the target T1, 380 human recombinant protein kinases (Homo sapiens, UniProt O95835).
T1 construct: purchased Eurofins (Celle Lévescault)
T1 sequence (O95835 1-1130): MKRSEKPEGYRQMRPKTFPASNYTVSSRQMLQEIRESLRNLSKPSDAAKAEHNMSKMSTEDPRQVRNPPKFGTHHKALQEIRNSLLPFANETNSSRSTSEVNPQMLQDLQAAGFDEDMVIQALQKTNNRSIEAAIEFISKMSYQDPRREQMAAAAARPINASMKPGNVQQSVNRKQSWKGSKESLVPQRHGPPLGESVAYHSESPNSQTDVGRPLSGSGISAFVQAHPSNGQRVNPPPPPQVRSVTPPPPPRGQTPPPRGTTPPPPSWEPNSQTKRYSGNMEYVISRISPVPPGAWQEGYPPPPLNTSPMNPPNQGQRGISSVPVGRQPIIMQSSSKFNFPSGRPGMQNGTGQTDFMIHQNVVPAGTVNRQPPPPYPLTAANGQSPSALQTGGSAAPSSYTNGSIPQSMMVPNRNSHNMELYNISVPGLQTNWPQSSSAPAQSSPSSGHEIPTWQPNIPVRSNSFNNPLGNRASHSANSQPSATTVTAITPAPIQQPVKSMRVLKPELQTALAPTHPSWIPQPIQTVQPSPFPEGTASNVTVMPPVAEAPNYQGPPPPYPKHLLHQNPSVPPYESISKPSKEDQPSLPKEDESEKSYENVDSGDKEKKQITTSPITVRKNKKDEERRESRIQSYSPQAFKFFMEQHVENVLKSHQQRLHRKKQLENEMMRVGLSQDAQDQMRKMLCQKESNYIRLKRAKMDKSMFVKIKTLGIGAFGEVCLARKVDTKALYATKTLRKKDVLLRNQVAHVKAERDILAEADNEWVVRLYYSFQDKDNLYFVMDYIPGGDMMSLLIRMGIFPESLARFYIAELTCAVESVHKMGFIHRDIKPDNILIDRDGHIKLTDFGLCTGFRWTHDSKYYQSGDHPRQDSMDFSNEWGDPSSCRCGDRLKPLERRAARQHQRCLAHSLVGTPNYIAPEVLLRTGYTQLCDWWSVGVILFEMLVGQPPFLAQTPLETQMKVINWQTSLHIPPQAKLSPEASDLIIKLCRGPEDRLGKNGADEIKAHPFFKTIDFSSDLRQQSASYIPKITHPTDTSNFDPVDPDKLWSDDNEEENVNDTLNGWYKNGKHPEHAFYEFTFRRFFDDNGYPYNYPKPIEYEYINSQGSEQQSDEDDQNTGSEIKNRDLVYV
Kind of assay: Eurofins kinase selectivity profile against 380 other human recombinant kinases (Table S2). Conditions: LATS1(h), read-out: Inhibition rate. The class given is biochemical. An outline of the steps:
(§1)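 Outsourced panel: 380 human recombinant kinases; inhibitor tested at various concentrations; purpose: MK2 selectivity check.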

Assay [2] addresses T2, 380 human recombinant protein kinases (Homo sapiens, UniProt Q8WXR4).
T2 construct: purchased Eurofins (Celle Lévescault)
T2 sequence (Q8WXR4 1-1341): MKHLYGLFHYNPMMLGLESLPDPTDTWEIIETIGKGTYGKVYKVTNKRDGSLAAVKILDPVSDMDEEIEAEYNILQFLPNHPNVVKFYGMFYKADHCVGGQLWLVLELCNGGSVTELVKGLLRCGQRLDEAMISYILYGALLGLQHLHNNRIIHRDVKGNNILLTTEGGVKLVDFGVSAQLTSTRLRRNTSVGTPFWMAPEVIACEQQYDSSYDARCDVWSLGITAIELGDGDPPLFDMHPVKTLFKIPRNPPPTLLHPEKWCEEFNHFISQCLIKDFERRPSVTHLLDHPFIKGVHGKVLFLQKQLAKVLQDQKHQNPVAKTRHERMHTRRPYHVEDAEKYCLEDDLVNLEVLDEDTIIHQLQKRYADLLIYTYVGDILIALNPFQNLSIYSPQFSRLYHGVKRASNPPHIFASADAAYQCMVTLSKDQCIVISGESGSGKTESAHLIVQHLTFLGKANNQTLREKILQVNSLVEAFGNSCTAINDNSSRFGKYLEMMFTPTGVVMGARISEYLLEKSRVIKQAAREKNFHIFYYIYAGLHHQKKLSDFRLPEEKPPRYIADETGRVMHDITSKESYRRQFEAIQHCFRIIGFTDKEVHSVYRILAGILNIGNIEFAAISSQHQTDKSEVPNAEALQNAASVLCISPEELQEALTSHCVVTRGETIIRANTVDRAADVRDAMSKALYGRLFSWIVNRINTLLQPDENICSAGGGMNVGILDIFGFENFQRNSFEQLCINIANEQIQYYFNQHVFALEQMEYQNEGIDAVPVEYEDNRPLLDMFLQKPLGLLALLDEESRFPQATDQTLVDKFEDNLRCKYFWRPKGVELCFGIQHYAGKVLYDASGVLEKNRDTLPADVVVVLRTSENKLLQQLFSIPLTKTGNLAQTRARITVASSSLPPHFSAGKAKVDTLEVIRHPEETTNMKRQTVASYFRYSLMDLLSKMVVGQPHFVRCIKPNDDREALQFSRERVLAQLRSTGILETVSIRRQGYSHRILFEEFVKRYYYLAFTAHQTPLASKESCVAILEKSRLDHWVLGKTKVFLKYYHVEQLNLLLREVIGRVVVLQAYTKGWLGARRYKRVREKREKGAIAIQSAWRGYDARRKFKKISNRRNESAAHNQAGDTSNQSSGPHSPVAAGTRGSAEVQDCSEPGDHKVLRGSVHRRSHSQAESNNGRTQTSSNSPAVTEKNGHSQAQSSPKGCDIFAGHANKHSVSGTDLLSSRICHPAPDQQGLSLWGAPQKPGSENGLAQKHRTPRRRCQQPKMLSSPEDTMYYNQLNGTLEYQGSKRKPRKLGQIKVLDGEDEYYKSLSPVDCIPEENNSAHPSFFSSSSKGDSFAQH
Described as above. To be noted: MYO3B(h), read-out: Inhibition rate. The format is biochemical. An outline of the steps: as §1

With `C=CC(=O)Nc1cc(-c2cc(-c3cc4c([nH]3)CCNC4=O)ccn2)ccc1OC(F)(F)F` [compound 11], the inhibition at 0.01 µM in assay [1] (10 nM) is -11%; in assay [2] (10 nM), 3%. The inhibition at 0.1 µM in assay [1] (100 nM) is -3%; in assay [2] (100 nM), 4%. The inhibition at 1 µM was 1% in assay [1] (1000 nM) and 16% in assay [2] (1000 nM).
